B1: TRAIL: protein functioning as a ligand that induces apoptosis; cytokine binding death receptors DR4 and DR5 (protein, UniProt P50591 1-281, looked up)
Tumor necrosis factor ligand …: MAMMEVQGGPSLGQTCVLIVIFTVLLQSLCVAVTYVYFTNELKQMQDKYSKSGIACFLKEDDSYWDPNDEESMNSPCWQVKWQLRQLVRKMILRTSEETISTVQEKQQNISPLVRERGPQRVAAHITGTRGRSNTLSSPNSKNEKALGRKINSWESSRSGHSFLSNLHLRNGELVIHEKGFYYIYSQTYFRFQEEIKENTKNDKQMVQYIYKYTSYPDPILLMKSARNSCWSKDAEYGLYSIYQGGIFELKENDRIFVSVTNEHLIDMDHEASFFGAFLVG

How the values were obtained:
C4-2b cells = assay: Cytotoxicity by crystal violet staining and MTT survival assay, C4-2b cells; assay type: cell-based; details: for response of cells following exposure to the agent alone: TRAIL or TNF-α alone
Description: (§1) LNCaP and C4-2b cells were used as model cell lines that show resistance to TRAIL. […] In the present study we evaluated the effects of TET alone or in combination with TRAIL and TNF-α. Prostate cancer cell lines LNCaP and LNCaP derived C4-2b were used for this study. Cell lines were treated with TET, TRAIL, or TNF-αalone or in various combinations for different time points. mRNA expression was quantitated via Real Time-PCR and changes in protein expression were analyzed by Western Blot analysis. Cytotoxicity was evaluated using the Crystal violet and MTT survival assay.
(§2) Turning to FIGS. 12-15, pretreatment of both cell lines with TET for 12 hours, followed by TRAIL and TNF-α treatment for another 24 hours increased the apoptosis inducing potential of TRAIL and TNF-α in these cells. […] For FIGS. 12 and 14, LNCap (FIG. 12) and C4-2b (FIG. 14) cells treated with or without TET, TRAIL, and TNFα were crystal violet stained. Wells are representative of at least three repeats. For FIGS. 13 and 15, LNCap (FIG. 13) and C4-2b (FIG. 15) cells were subjected to MTT assay using the same experimental plan as in FIGS. 12, 14 respectively. Data were normalized to the untreated control at the respective concentrations of TET, TRAIL and TNF-α. Data are representative of at least three repeats.

LNCaP cells = assay: Cytotoxicity by crystal violet staining and MTT survival assay, LNCaP cells; assay type: cell-based; details: for response of cells following exposure to the agent alone: TRAIL or TNF-α alone
Description: as §1, §2

DR4 [1] = assay: DR4 mRNA expression by reverse transcriptase PCR, C4-2b cells; assay type: cell-based; details: 20 μM Tet, 0-48 hours, normalized to GAPDH
Description: as §1, with “assay. Turning to FIGS. 6-11, LNCaP and C4-2b cells were incubated in the presence of 20 μM of Tet for different time points (0-48 hours). Total RNA was prepared from the cells and cDNA was transcribed. Reverse transcriptase PCR was performed to determine the mRNA levels of DR4, DR5 and TNF-α. GAPDH was used for normalization. Each data point represents mean+/−standard deviation of three independent gels.” for “assay.”

DR4 [2] = assay: DR4 protein level by western blotting, C4-2b cells; assay type: cell-based; details: 20 μM TET, 0-48 hours, GAPDH loading control
Description: as §1, with “assay. Turning to FIGS. 2A-2C, C4-2b cells were treated with 20 μM TET for 0-48 hours. After the treatments cells were lysed and DR4, DR5 and TNFR1 levels were detected by western blotting. Similarly, in FIGS. 3-5, densiomentry fold increase for DR4, DR5 and TNFR1 western blots is shown. The fold increase was calculated with the density of untreated LNCaP cells as a reference. GAPDH was used as loading control. Averages are representative of 3 independent experiments. Error bars represent standard deviation.” for “assay.”

prostate cancer cells [3] = assay: Apoptosis in prostate cancer cells in vitro; assay type: cell-based
DR4 [4] = assay: DR4 protein level (array / western blot densitometry), LNCaP cells; assay type: cell-based; details: 20 μM TET, versus untreated cells
Description: (§3) LNCaP and C4-2b cells were used as model cell lines that show resistance to TRAIL. […] In the present study we evaluated the effects of TET alone or in combination with TRAIL and TNF-α. Prostate cancer cell lines LNCaP and LNCaP derived C4-2b were used for this study. Cell lines were treated with TET, TRAIL, or TNF-αalone or in various combinations for different time points. mRNA expression was quantitated via Real Time-PCR and changes in protein expression were analyzed by Western Blot analysis. Cytotoxicity was evaluated using the Crystal violet and MTT survival assay. […] LNCaP cells were either untreated or treated with 20 μM TET for 24 hours. Arrays were incubated with 400 μg of each cell lysate. Data shown in FIG. 1 are from a 1 minute exposure to X-ray film. […] Fold increase was calculated with the density of untreated LNCaP cells as a reference. Averages are representative of 2 independent experiments. Error bars represent standard deviation. Turning to FIGS. 2A-2C, C4-2b cells were treated with 20 μM TET for 0-48 hours. After the treatments cells were lysed and DR4, DR5 and TNFR1 levels were detected by western blotting. Similarly, in FIGS. 3-5, densiomentry fold increase for DR4, DR5 and TNFR1 western blots is shown. The fold increase was calculated with the density of untreated LNCaP cells as a reference. GAPDH was used as loading control. […]

TNFR1 [5] = assay: TNFR1 mRNA expression by reverse transcriptase PCR, C4-2b cells; assay type: cell-based; details: 20 μM Tet, 0-48 hours, normalized to GAPDH
DR5 [6] = assay: DR5 protein level by western blotting, C4-2b cells; assay type: cell-based; details: 20 μM TET, 0-48 hours, GAPDH loading control
Description: (§4) LNCaP and C4-2b cells were used as model cell lines that show resistance to TRAIL. […] In the present study we evaluated the effects of TET alone or in combination with TRAIL and TNF-α. Prostate cancer cell lines LNCaP and LNCaP derived C4-2b were used for this study. Cell lines were treated with TET, TRAIL, or TNF-αalone or in various combinations for different time points. mRNA expression was quantitated via Real Time-PCR and changes in protein expression were analyzed by Western Blot analysis. Cytotoxicity was evaluated using the Crystal violet and MTT survival assay. Turning to FIGS. 2A-2C, C4-2b cells were treated with 20 μM TET for 0-48 hours. After the treatments cells were lysed and DR4, DR5 and TNFR1 levels were detected by western blotting. Similarly, in FIGS. 3-5, densiomentry fold increase for DR4, DR5 and TNFR1 western blots is shown. The fold increase was calculated with the density of untreated LNCaP cells as a reference. GAPDH was used as loading control. Averages are representative of 3 independent experiments. Error bars represent standard deviation.

prostate cancer cells [7] = assay: Apoptosis in prostate cancer cells in vivo
TNFR1 [8] = assay: TNFR1 mRNA expression by reverse transcriptase PCR, LNCaP cells; assay type: cell-based; details: 20 μM Tet, 0-48 hours, normalized to GAPDH
DR5 [9] = assay: DR5 mRNA expression by reverse transcriptase PCR, LNCaP cells; assay type: cell-based; details: 20 μM Tet, 0-48 hours, normalized to GAPDH
Description: as §1, with “assay. Turning to FIGS. 6-11, LNCaP and C4-2b cells were incubated in the presence of 20 μM of Tet for different time points (0-48 hours). Total RNA was prepared from the cells and cDNA was transcribed. Reverse transcriptase PCR was performed to determine the mRNA levels of DR4, DR5 and TNF-α. GAPDH was used for normalization. Each data point represents mean+/−standard deviation of three independent gels.” for “assay.”

TNFR1 [10] = assay: TNFR1 protein level (array / western blot densitometry), LNCaP cells; assay type: cell-based; details: 20 μM TET, versus untreated cells
Description: as §3

TNFR1 [11] = assay: TNFR1 protein level by western blotting, C4-2b cells; assay type: cell-based; details: 20 μM TET, 0-48 hours, GAPDH loading control
Description: as §4

DR5 [12] = assay: DR5 protein level (array / western blot densitometry), LNCaP cells; assay type: cell-based; details: 20 μM TET, versus untreated cells
Description: as §3

DR5 [13] = assay: DR5 mRNA expression by reverse transcriptase PCR, C4-2b cells; assay type: cell-based; details: 20 μM Tet, 0-48 hours, normalized to GAPDH
Description: as §1, with “assay. Turning to FIGS. 6-11, LNCaP and C4-2b cells were incubated in the presence of 20 μM of Tet for different time points (0-48 hours). Total RNA was prepared from the cells and cDNA was transcribed. Reverse transcriptase PCR was performed to determine the mRNA levels of DR4, DR5 and TNF-α. GAPDH was used for normalization. Each data point represents mean+/−standard deviation of three independent gels.” for “assay.”

DR4 [14] = assay: DR4 mRNA expression by reverse transcriptase PCR, LNCaP cells; assay type: cell-based; details: 20 μM Tet, 0-48 hours, normalized to GAPDH
Description: as §1, with “assay. Turning to FIGS. 6-11, LNCaP and C4-2b cells were incubated in the presence of 20 μM of Tet for different time points (0-48 hours). Total RNA was prepared from the cells and cDNA was transcribed. Reverse transcriptase PCR was performed to determine the mRNA levels of DR4, DR5 and TNF-α. GAPDH was used for normalization. Each data point represents mean+/−standard deviation of three independent gels.” for “assay.”

[15] = TET pretreatment 12 hours, then TRAIL and TNF-α for another 24 hours

Molecule	response of cells following exposure to the agent alone (C4-2b cells)	response of cells following exposure to the agent alone (LNCaP cells)	mRNA level of DR4 (DR4 [1])	protein level of DR4 (DR4 [2])	apoptosis in prostate cancer cells (prostate cancer cells [3])	apoptosis inducing potential of TRAIL and TNF-α after TET pretreatment (C4-2b cells; [15])	apoptosis response to soluble h-TRAIL and TNF-α in combination with TET (C4-2b cells; TET treated cells in vitro)	protein level of DR4 (DR4 [4])	mRNA level of TNFR1 (TNFR1 [5])	protein level of DR5 (DR5 [6])	apoptosis in prostate cancer cells (prostate cancer cells [7])	mRNA level of TNFR1 (TNFR1 [8])	apoptosis inducing potential of TRAIL and TNF-α after TET pretreatment (LNCaP cells; [15])	apoptosis response to soluble h-TRAIL and TNF-α in combination with TET (LNCaP cells; TET treated cells in vitro)	mRNA level of DR5 (DR5 [9])	protein level of TNFR1 (TNFR1 [10])	protein level of TNFR1 (TNFR1 [11])	protein level of DR5 (DR5 [12])	mRNA level of DR5 (DR5 [13])	mRNA level of DR4 (DR4 [14])
TNF-α	did not show a significant response	did not show a significant response	–	–	–	–	–	–	–	–	–	–	–	–	–	–	–	–	–	–
COc1ccc2cc1Oc1ccc(cc1)C[C@H]1c3cc(c(OC)cc3CCN1C)Oc1c(OC)c(OC)cc3c1[C@H](C2)N(C)CC3 [TET, Tetrandrine]	–	–	increased	increased	promotes apoptosis	increased	synergistic apoptosis response	increased	increased	increased	promotes apoptosis	increased	increased	synergistic apoptosis response	increased	increased	increased	increased	increased	increased
B1	did not show a significant response	did not show a significant response	–	–	–	–	–	–	–	–	–	–	–	–	–	–	–	–	–	–
